row,SMILES,melting point
1,"CN1CCN(c2cccc3ccc(NC(=O)c4ccc(O)cc4)cc23)CC1 [Example 10, 7-(4-Hydroxybenzamido)-1-(4-methyl-1-piperazinyl)-naphthalene]",156 to 160 °C
2,"CN1CCN(c2cccc3ccc(NCc4cccc5ccccc45)cc23)CC1 [Example 13, 7-(1-Naphthylmethylamino)-1-(4-methyl-1-piperazinyl)-naphthalene]",140 to 141 °C
3,"CN1CCN(c2cccc3ccc(NCc4ccccc4)cc23)CC1 [Example 14, 7-(Benzylamino)-1-(4-methyl-1-piperazinyl)-naphthalene]",115 to 117 °C
4,"CCCCCC(=O)Nc1ccc2cccc(N3CCN(C)CC3)c2c1 [Example 17, 7-Hexanamido-1-(4-methyl-1-piperazinyl)-naphthalene]",144 to 146 °C
5,"CN1CCN(c2cccc3ccc(NC(=O)Nc4ccccc4)cc23)CC1 [Example 19, 7-(Phenylaminocarbonylamino)-1-(4-methyl-1-piperazinyl)-naphthalene]",213 to 214 °C
6,"CN1CCN(c2cccc3ccc(NC(=O)OCc4ccccc4)cc23)CC1 [Example 20, 7-(Benzyloxycarbonylamino)-1-(4-methyl-1-piperazinyl)-naphthalene]",143 to 144 °C
7,"CN1CCN(c2cccc3ccc(Nc4nc(Cc5ccccc5)cs4)cc23)CC1 [Example 24, 4-Benzyl-2-[-1-(4-methyl-1-piperazinyl)-7-naphthylamino]-thiazole]",157 to 160 °C
8,"CN1CCN(c2cccc3ccc(Nc4ncccc4[N+](=O)[O-])cc23)CC1 [Example 25, 7-(3-Nitro-2-pyridinylamino)-1-(4-methyl-1-piperazinyl)-naphthalene]",127.5 to 129 °C
9,"CN1CCN(c2cccc3ccc(Nc4ccc([N+](=O)[O-])cn4)cc23)CC1 [Example 27, 7-(5-Nitro-2-pyridylamino)-1-(4-methyl-1-piperazinyl)-naphthalene]",121 to 125 °C
10,"CN1CCN(c2cccc3ccc(Nc4ccccc4[N+](=O)[O-])cc23)CC1 [Example 28, 7-(2-Nitrophenylamino)-1-(4-methyl-1-piperazinyl)-naphthalene]",87 to 94 °C
11,"CN1CCN(c2cccc3ccc(Nc4ncccc4NC(=O)c4ccccc4)cc23)CC1 [Example 30, 7-(3-Benzamido-2-pyridylamino)-1-(4-methyl-1-piperazinyl)-naphthalene]",205 to 207 °C
12,"CC(=O)Nc1cccnc1Nc1ccc2cccc(N3CCN(C)CC3)c2c1 [Example 31, 7-(3-Acetamido-2-pyridylamino)-1-(4-methyl-1-piperazinyl)-naphthalene]",110 to 114 °C (dec.)
13,"CN1CCN(c2cccc3ccc(-n4cnc5ncccc54)cc23)CC1 [Example 35, 7-(Imidazolo[4,5-b]pyridin-1-yl)-1-(4-methyl-1-piperazinyl)-naphthalene]",107 to 112 °C
14,"CN1CCN(c2cccc3ccc(-n4cnc5ccccc54)cc23)CC1 [Example 37, 7-(Benzimidazol-1-yl)-1-(4-methyl-1-piperazinyl)-naphthalene]",148 to 150 °C
15,"CN1CCN(c2cccc3ccc(OCc4ccc(Cl)cc4)cc23)CC1 [Example 40, 7-(4-Chlorobenzyloxy)-1-(4-methyl-1-piperazinyl)-naphthalene]",111.5 to 112 °C
16,"CNS(=O)(=O)c1cccc(-c2ccc3cccc(N4CCN(C)CC4)c3c2)c1 [Example 41, 7-(3-Methylaminosulfonylphenyl)-1-(4-methyl-1-piperazinyl)naphthalene]",147.5 to 148 °C
17,"CN1CCN(c2cccc3ccc(-c4cccc(NS(C)(=O)=O)c4)cc23)CC1 [Example 42, 7-(3-Methylsulfonylaminophenyl)-1-(4-methyl-1-piperazinyl)-naphthalene]",100 to 101 °C
18,"CN1CCN(c2cccc3ccc(C(=O)c4ccccc4)cc23)CC1 [Example 43, 7-Benzoyl-1-(4-methyl-1-piperazinyl)naphthalene]",124 to 124.5 °C
19,"CN1CCN(c2cccc3ccc(C(O)c4ccccc4)cc23)CC1 (stereo not drawn) [Example 44, 7-(α-Hydroxybenzyl)-1-(4-methyl-1-piperazinyl)-naphthalene]",162.5 to 163 °C
20,"CN1CCN(c2cccc3ccc(C(O)(c4ccccc4)c4ccccc4)cc23)CC1 [Example 45, 7-(Diphenylhydroxymethyl)-1-(4-methyl-1-piperazinyl)-naphthalene]",217.5 to 218.5 °C
21,"CN1CCN(c2cccc3ccc(OCc4ccccc4)cc23)CC1 [Example 49, 7-(Benzyloxy)-1-(4-methyl-1-piperazinyl)-naphthalene]",81.5 to 82.5 °C
22,"CN1CCN(c2cccc3ccc(OCc4ccc(Cl)c(Cl)c4)cc23)CC1 [Example 50, 7-(3,4-Dichlorobenzyloxy)-1-(4-methyl-1-piperazinyl)-naphthalene]",113 to 114 °C
23,"CN1CCN(c2cccc3ccc(OC(=O)c4ccccc4)cc23)CC1 [Example 52, 7-Benzoyloxy-1-(4-methyl-1-piperazinyl)-naphthalene]",82 to 82.5 °C
24,"CN1CCN(c2cccc3ccc(OC(=O)c4ccc(Cl)cc4)cc23)CC1 [Example 53, 7-(4-Chlorobenzoyloxy)-1-(4-methyl-1-piperazinyl)-naphthalene]",110 to 111 °C
25,"CN1CCN(c2cccc3ccc(OCc4cccc(Cl)c4)cc23)CC1 [Example 54, 7-(3-Chlorobenzyloxy)-1-(4-methyl-1-piperazinyl)-naphthalene]",67.5 to 68 °C
26,"CN1CCN(c2cccc3ccc(OS(=O)(=O)C(F)(F)F)cc23)CC1 [Example 55, 7-Trifluoromethylsulfonyloxy-1-(4-methyl-1-piperazinyl)-naphthalene]",70 to 71 °C
27,"CCCN1CCN(c2cccc3ccc(NC(=O)c4ccc(Cl)cc4)cc23)CC1 [Example 66, 7-(4-Chlorobenzamido)-1-(4-propyl-1-piperazinyl)-naphthalene]",130 to 132 °C
28,"CCN1CCN(c2cccc3ccc(NC(=O)c4ccc(Cl)cc4)cc23)CC1 [Example 67, 7-(4-Chlorobenzamido)-1-(4-ethyl-1-piperazinyl)-naphthalene]",173 to 174.5 °C
29,"CN1CCC(c2cccc3ccc(NC(=O)c4ccccc4)cc23)C1 (stereo not drawn) [Example 69, 7-Benzamido-1-(1-methyl-3-pyrrolidinyl)-naphthalene]",137 to 145 °C
30,"CN1CCN(c2cccc3ccc(C(=O)NCc4ccc(Cl)cc4)cc23)CC1 [Example 80, 8-(4-Methylpiperazin-1-yl)naphthalene-2-carboxylic Acid 4-chlorobenzylamide]",72 to 74 °C

# Source: patent US20050080090A1, “Naphthalene derivatives” (priority 1993, published 2005)
